pEC50: −log10 of the molar value. ≈ marks a conversion by molar mass, not a printed value. Like-named read-outs stand apart in the source and are kept apart here.
What was measured:
[1] = system: A/Albany/1/98 (H3N2); assay: microbe, parasite or virus in culture; assay type: cell-based; details: for pEC50 / EC50: Influenza A virus, H3N2, MDCK; for pEC50: read-out: EC50, Target serum C; for EC50: read-out: EC50, In vitro C; for EC25, Target serum C: molar equivalent of in vitro EC25; for EC75, Target serum C: molar equivalent of in vitro EC75; for EC25, In vitro C / EC75, In vitro C: MDCK cells in flasks, virus reduction at 72 hrs
[2] = system: A/Sydney/05/97 H3N2 virus; assay type: cell-based; details: for increase in sensitivity of the virus to the drug in triple combination compared to monotherapy: drug used with the two other drugs vs. monotherapy; for concentration range at which synergy was seen: drugs in combination, MDCK 96-well
[3] = system: Influenza A/Victoria/3/75 (H3N2) virus; assay: In vitro kinetic assay of mono and combination therapy in MDCK and SIAT-1 cells (viral load by CCID50, CPE scoring); assay type: cell-based
[4] = system: wild type A/Albany (H3N2) strain; assay: Hollow fiber system, MDCK cells, continuous infusion 168 hours, viral titer and sequencing; assay type: cell-based, Influenza A virus (H3N2); details: for effect on viral titer: drug alone at low dose (amantadine 0.1 μg/mL; ribavirin 0.5 μg/mL); for concentrations at which the triple combination demonstrated synergism: hollow fiber, steady-state infusion
[5] = system: A/Victoria/3/75 (H3N2) virus; assay: Mouse model of influenza infection, treatment started before infection (Example 3A); assay type: in vivo, mice
[6] = system: A/Victoria/3/75 (H3N2) virus; assay: Mouse model of influenza infection, treatment initiated 24 or 48 hours after infection (Example 3B); assay type: in vivo, mice; details: for weight loss: day 9
[7] = molar equivalent of in vitro EC50
[8] = monotherapy, concentration of drug that reduces 50% of the virus at 72 hrs
[9] = drug alone at high dose (amantadine 1.0 μg/mL; ribavirin 5 μg/mL), 48 hours
[10] = amantadine 3 mg/ml, oseltamivir 10 or 30 mg/kg/day, ribavirin 7 or 21 mg/kg/day, monotherapy
[11] = treatment initiated 48 hours after infection

Q: With `NC12CC3CC(CC(C3)C1)C2` [Amantadine, 1-amino-adamantane] as the compound, how does the pEC50 [1, 7] read?
A: The pEC50 was 6.32.

Q: And the EC50 [1, 8]?
A: Its EC50 is 91 ng/mL.

Q: And the “EC25, Target serum C” value [1]?
A: Its value is 288 nM.

Q: And the “EC75, Target serum C” value [1]?
A: The value was 815 nM.

Q: What about the “EC25, In vitro C” value ([1]; monotherapy) of the same compound?
A: The value was 54 ng/mL (≈ 357 nM).

Q: And the “EC75, In vitro C” value ([1]; monotherapy)?
A: Its value is 153 ng/mL (≈ 1010 nM).

Q: And the “reduction in viral load” value ([2]; amantadine monotherapy at 1 μg/ml)?
A: Its value is ~60%.

Q: What about the “increase in sensitivity of the virus to the drug in triple combination compared to monotherapy” value [2] of the same compound?
A: Its value is 10 fold.

Q: What about the “concentration range at which synergy was seen” value [2] of the same compound?
A: Its value is 0.1 to 1 µg/mL.

Q: And the “time post infection until substantial cell death was seen” value [3]?
A: The value was 144 h.

Q: What about the reduction in titer [4, 9] of the same compound?
A: Its reduction in titer is 2-3 log.

Q: And the “effect on viral titer” value [4]?
A: The value was “negligible effect”.

Q: What about the “concentrations at which the triple combination demonstrated synergism” value [4] of the same compound?
A: Its value is 0.1 to 1 µg/mL.

Q: And the survival rate ([5]; amantadine 3 mg/ml by Alzet pump (4 mg/kg/day), 3 survivors out of 11)?
A: Its survival rate is 27%.

Q: What about the “weight loss during the infection” value [5, 10] of the same compound?
A: Its value is “more substantial”.

Q: What about the “protection (survival)” value ([5]; amantadine 10 mg/ml by Alzet pump (13 mg/kg/day)) of the same compound?
A: The value was 92%.

Q: What about the “weight loss during the infection” value ([5]; amantadine 10 mg/ml monotherapy) of the same compound?
A: Its value is “minimal”.

Q: What about the “mice protected, UK/EU mortality criteria (death=20% weight loss)” value ([5]; mouse, in vivo) of the same compound?
A: Its value is 10%.

Q: And the times to death ([5]; mouse, in vivo)?
A: Its times to death is “significantly increased”.

Q: What about the “mortality (UK/EU mortality criteria)” value ([6]; mouse, in vivo) of the same compound?
A: Its value is 100%.

Q: What about the weight loss [6, 11] of the same compound?
A: Its weight loss is ~35%.

Q: Which results are given for `CCOC(=O)C1=C[C@@H](OC(CC)CC)[C@H](NC(C)=O)[C@@H](N)C1` [Oseltamivir]?
A: EC50 ([1]; 72 h): 0.05 ng/mL; pEC50 [1]: 9.80; EC25, Target serum C [1]: 0.080 nM; EC75, Target serum C [1]: 0.240 nM; EC25, In vitro C ([1]; monotherapy): 0.025 ng/mL (≈ 0.08 nM); EC75, In vitro C ([1]; monotherapy): 0.075 ng/mL (≈ 0.24 nM); increase in sensitivity of the virus to the drug in triple combination compared to monotherapy [2]: over 100 fold; concentration range at which synergy was seen [2]: 0.001 to 0.032 µg/mL; reduction in viral load ([2]; oseltamivir monotherapy at 0.1 μg/ml): ~50%; concentrations at which the triple combination demonstrated synergism [4]: 0.001 to 0.01 µg/mL; reduction in titer ([4]; oseltamivir alone, both doses (1 and 10 ng/mL)): ~1 log; weight loss during the infection [5, 10]: more substantial; mice protected, UK/EU mortality criteria (death=20% weight loss) ([5]; oseltamivir 10 mg/kg/day, amantadine 3 mg/ml, ribavirin 7 mg/kg/day, as monotherapy or as triple combination at the same concentrations): 40%; survival benefit ([5]; oseltamivir monotherapy at 10 and 30 mg/kg/day oral gavage): 92-100%; mortality (UK/EU mortality criteria) ([6]; treatment initiated 24 hours after infection, by day 9, amantadine 28, oseltamivir 10 mg/kg/day): 100%; weight loss [6, 11]: ~35%

Q: `NC(=O)c1ncn([C@@H]2O[C@H](CO)[C@@H](O)[C@H]2O)n1` [Ribavirin] was tested. Which pEC50 [1, 7] did it give?
A: Its pEC50 is 5.99.

Q: What about the EC50 [1, 8] of the same compound?
A: Its EC50 is 420 ng/mL.

Q: And the “EC25, Target serum C” value [1]?
A: Its value is 760 nM.

Q: What about the “EC75, Target serum C” value [1] of the same compound?
A: Its value is 1500 nM.

Q: And the “EC25, In vitro C” value ([1]; monotherapy)?
A: Its value is 310 ng/mL (≈ 1270 nM).

Q: And the “EC75, In vitro C” value ([1]; monotherapy)?
A: Its value is 615 ng/mL (≈ 2520 nM).

Q: And the “increase in sensitivity of the virus to the drug in triple combination compared to monotherapy” value [2]?
A: Its value is 100 fold.

Q: What about the “concentration range at which synergy was seen” value [2] of the same compound?
A: Its value is 0.032 to 1.0 µg/mL.

Q: What about the “reduction in viral load” value ([2]; ribavirin monotherapy at 1 μg/ml) of the same compound?
A: The value was “approximately 10%”.

Q: What about the “reduction in viral load” value ([2]; ribavirin monotherapy at 3.2 μg/ml) of the same compound?
A: The value was ~95%.

Q: And the reduction in titer [4, 9]?
A: Its reduction in titer is ~3 log.

Q: And the “effect on viral titer” value [4]?
A: Its value is “negligible effect”.

Q: What about the “concentrations at which the triple combination demonstrated synergism” value [4] of the same compound?
A: Its value is 0.5 to 5 µg/mL.

Q: And the “weight loss during the infection” value [5, 10]?
A: Its value is “more substantial”.

Q: And the times to death ([5]; mouse, in vivo)?
A: The times to death was “significantly increased”.

Q: What about the weight loss [6, 11] of the same compound?
A: The weight loss was “about 26%”.

Q: What about the “weight as percent of original weight” value ([6]; treatment initiated 48 hours after infection, day 13) of the same compound?
A: The value was “approximately 80%”.

From patent publication US7981930B2, “Compositions and kits for treating influenza” (Adamas Pharmaceuticals, Inc., priority 2007, dated 2011)
